Assay results as given in patent US5132429A, “Benzotriazole derivatives and fluorescence-emitting reagents thereof” (priority 1988, dated 1992).

Columns and labels:
[1] = biological target: α1-AG (α1-acid glycoprotein); assay: Binding constant of basic drug to α1-AG by displacement of compound 1 (fluorescence probe method, Klotz formula); conditions: 0.1M phosphoric acid buffer pH 7.4; 3×10^-6 M α1-AG; compound 1 as probe
Protocol: (§1) Two different kinds of solutions, one containing α1 -AG and a compound of this invention listed above, the other containing α1 -AG, the compound of this invention, and a drug, are prepared to measure fluorescence intensity at the excitation. fluorescence wavelength, as shown in Table 2. According to the working curve made beforehand, the binding rate of the compound to α1 -AG in each solution is determined and the binding constant of a drug to α1-AG is calculated from the difference between the binding rates in the presence and the absence of a drug.
(§2) In the fluorescence cell made of quartz with a plug was placed the buffer solution of 0.1M phosphoric acid (2 ml) which pH is 7.4 and containig 1×10^-4 M α1 -AG, to which 5×10^-4 M aqueous solution of the compound 1 was added by 2 μl each with a microcylinder, which was prepared by dissolving about 3 mg of the compound 1 in 1N hydrochloric acid (1 ml), followed by diluting with water to make the total volume 200 times, and the resulting solution was mixed fully to determine fluorescence intensity at 508 nm (excitation wavelength: 418 nm).
(§3) For the buffer solution of 0.1M phosphoric acid (2 ml) which pH is 7.4 and containing 3×10^-6 M α1 -AG, the same procedure as in Example 1 was performed.
As for the other basic drugs shown in Table 3, binding constant were obtained according to the same manner as in Example 11.

[2] = system: α1-AG; conditions: cited from earlier work
[3] = system: α1-AG (α1-acid glycoprotein); assay: Binding of compound to α1-AG by fluorescence titration, Scatchard analysis; conditions: for binding of the compound 1 to α1-AG: pH 7.4
Protocol: as §2, §3
The binding rate (X) of the compound 1 to α1 -AG was introduced from the following formula (1) [formula]
In this scheme, Fb is fluorescence intensity at some concentration of the compound 1 which was obtained in Experiment 1, Fp is fluorescence intensity at the same concentration of the compound 1 which was obtained in Example 2, and Fo is blank value.
The value introduced from the binding rate at each concentration of the compound 1 was plotted accoding to the formula (2) of Scatchard, whereby the binding parameter of the compound 1 to α1 -AG was obtained.
In this scheme, r is the amount of binding of the compound 1 per α1 -AG (1 mole), n is the number of binding site, Ka is the binding constant of the compound 1, Df is the concentration of the compound 1 which is free form.

[4] = system: α1-AG; assay: Fluorescence (excitation and fluorescence wavelength) with α1-AG; assay type: physicochemical
Protocol: as §1
Sulfosalicylic acid is added to the sample solution containing α1 -AG to remove coexisting proteins, to which the solution containing a compound is added. The mixed solution is subjected to determination of fluorescence intensity at excitation. fluorescence wavelength as shown in Table 2. According to the working curve on the standard solution of α1 -AG, the concentration of α1-AG in the sample is determined.

[5] = system: Human Serum Albumine; assay: Fluorescence (excitation and fluorescence wavelength) with human serum albumin; assay type: physicochemical
Protocol: A solution containing a compound is added to a solution containing albumin and the mixed solution is subjected to determination of fluorescence intensity at excitation. fluorescence wavelength as shown in Table 2. According to the working curve on the standard albumin solution made beforehand, the concentration of albumin in the sample solution is determined.

log Kb (binding constant) [1] | Excitation Wavelength [4] [nm] | Fluorescence Wavelength [4] [nm] | Excitation Wavelength [5] [nm] | Fluorescence Wavelength [5] [nm] | SMILES | also measured
6.01 | – | – | – | – | COc1ccc2c(c1)N(C[C@H](C)CN(C)C)c1ccccc1S2 [Levomepromazine] | –
– | – | – | – | – | CN(C)c1ccc(C(=N)c2ccc(N(C)C)cc2)cc1 [Auramin O] | binding strength to α1-AG ([2]; Y. Sugiyama et al, Biochem. Pharmcol. 34(6), 821-829 (1985)): very weak
– | 418 | 508 | 415 | 505 | CCN(CC)c1ccc(-n2nc3cc(N)cc(Cl)c3n2)cc1 [Compound 1, 7-chloro-2-(p-diethylaminophenyl)-2H-benzotriazolyl-5-amine] | n (number of binding site) ([3]; 0.1M phosphoric acid buffer pH 7.4, 3×10^-6 M α1-AG, Scatchard): 0.40; binding of the compound 1 to α1-AG ([3]; 1×10^-4 M α1-AG, ex 418 nm, em 508 nm): all of the compound 1 bound to α1 -AG; binding of the compound 1 to α1-AG ([3]; 3×10^-6 M α1-AG): under an equilibrium condition
– | – | – | – | – | CCC(c1ccccc1)c1c(O)c2ccccc2oc1=O (stereo not shown) [Phenprocoumon] | wavelength suitable for determination ([2]; M. Otagiri et al., J. of Pharmaceutical Sciences 76(8), 646-649 (1987)): short
5.58 | – | – | – | – | CN(C)CCC=C1c2ccccc2CCc2ccccc21 [Amitriptyline] | –
– | 452 | 567 | 420 | 520 | CCOC(=O)c1cc(N)cc2nn(-c3ccc(N(CC)CC)cc3)nc12 [Compound 5, Ethyl 6-amino-2-(p-diethylaminophenyl)-2H-benzotriazole-4-carboxylate] | –
– | 400 | 505 | 400 | 485 | Nc1cc(Cl)c2nn(-c3ccc(Nc4ccccc4)cc3)nc2c1 [Compound 3, 7-chloro-2-(p-anilinophenyl)-2H-benzotriazolyl-5-amine] | –
– | 396 | 502 | 383 | 465 | Nc1cc(Cl)c2nn(-c3ccc(N4CCOCC4)cc3)nc2c1 [Compound 4, 7-chloro-2-(p-morpholinophenyl)-2H-benzotriazolyl-5-amine] | –
5.54 | – | – | – | – | CC(CN(C)C)CN1c2ccccc2CCc2ccccc21 (stereo not shown) [Trimipramine] | –
4.94 | – | – | – | – | CC(CN1c2ccccc2Sc2ccccc21)N(C)C (stereo not shown) [Promethazine] | –
5.40 | – | – | – | – | COc1ccc([C@@H]2Sc3ccccc3N(CCN(C)C)C(=O)[C@@H]2OC(C)=O)cc1 [Diltiazem] | –
– | 396 | 482 | 385 | 480 | CNc1ccc(-n2nc3cc(N)cc(Cl)c3n2)cc1 [Compound 2, 7-chloro-2-(p-methylaminophenyl)-2H-benzotriazolyl-5-amine] | –
6.78 | – | – | – | – | COC(=O)C1=C(C)NC(C)=C(C(=O)OCCN(C)Cc2ccccc2)C1c1cccc([N+](=O)[O-])c1 (stereo not shown) [Nicardipine] | –

SMILES | log Kb (binding constant) [1] | Excitation Wavelength [4] [nm] | Fluorescence Wavelength [4] [nm] | Excitation Wavelength [5] [nm] | Fluorescence Wavelength [5] [nm] | also measured
CC(C)NCC(O)COc1cccc2[nH]ccc12 (stereo not shown) [Pindolol] | 5.33 | – | – | – | – | –
CN(C)CCCN1c2ccccc2CCc2ccccc21 [Imipramine] | 5.61 | – | – | – | – | –
CNCCCN1c2ccccc2CCc2ccccc21 [Desipramine] | 4.86 | – | – | – | – | –
